Results reported in patent US20040009194A1, “Methods, and compositions for a therapeutic antigen presenting cell vaccine for treatment of immunodeficiency virus” (priority 2002, published 2004).

Legend:
[1] = system: autologous B-LCL infected by recombinant vaccinia virus containing a gag gene of HIV-1; type: cell-based, human
autologous PBL = assay: Proliferation of patient T cells stimulated with inactivated-virus-pulsed autologous DC ([methyl-3H]thymidine incorporation); type: cell-based, human; details: indinavir 10 nM (nonantiviral concentration); P<0.001
From the text: To mimic the antigen capture by DC in peripheral tissues, immature DC (i.e., competent in antigen capture) generated by culturing patient blood monocytes with GM-CSF and IL-4 for 5 days were pulsed with autologous viral isolates inactivated by 2,2′ dithiodipyridine or aldrithiol-2 (AT-2), which preserves the intact native conformation and fusogenic activity of HIV Env protein. As will be appreciated by those skilled in the art, there are a number of mechanisms suitable to inactivate a virus, and any of these methods can be used so long as the method preserves the intact native conformation and fusogenic activity of HIV Env protein. To model the presentation of antigens in lymphoid tissue, virus-pulsed DC were matured in the presence of TNF-α and IFN-α for an additional 3 days to maximize their T-cell-stimulatory activity. Matured virus-pulsed DC was then used to stimulate autologous PBL at a stimulator/responder ratio of 1:3 in the absence or presence of PI at a nonantiviral concentration (10 nM indinavir). By day 7 of coculture, PBL were restimulated with the same virus-pulsed DC for an additional 7 days. At day 14, proliferation was measured by incubating PBL with virus-pulsed DC at stimulator/responder ratios of 1:3 to 1:100. […] HIV-1 gag-specific CTL activity following stimulation with virus-pulsed autologous DC.

Q: How did the “effect of indinavir on gag-specific CTL activity” value [1] turn out when `CC(C)(C)NC(=O)[C@@H]1CN(Cc2cccnc2)CCN1C[C@@H](O)C[C@@H](Cc1ccccc1)C(=O)N[C@H]1c2ccccc2C[C@H]1O` [indinavir] was run?
A: significantly enhanced

Q: And the “effect of PI on DC-mediated T-cell proliferation” value (autologous PBL)?
A: significantly enhanced
